These results are taken from ChEMBL document CHEMBL5260845, “Flavone-based arylamides as potential anticancers: Design, synthesis and in vitro cell-based/cell-free evaluations” (2020).

The test system of one assay is SNB-75. Description: Antiproliferative activity against temozolomide resistant human SNB-75 cells assessed as cell growth inhibition at 10 uM by SRB assay. It counts as functional, cell-based.
For another assay, the system named is SF-539. The experiment in a line: Antiproliferative activity against temozolomide resistant human SF-539 cells assessed as cell growth inhibition at 10 uM by SRB assay. Format: functional, cell-based.
In assay [1] the test system is RPMI-8226. Description: Antiproliferative activity against human RPMI-8226 cells assessed as cell growth inhibition at 10 uM by SRB assay relative to control. Format: functional.
A further assay concerns HL-60. Description: Antiproliferative activity against human HL-60 cells assessed as cell growth inhibition at 10 uM by SRB assay. It counts as functional, cell-based.
A further assay deals with Hs-578T. The experiment in a line: Antiproliferative activity against human Hs-578T cells assessed as inhibition of cell growth at 10 uM by SRB assay. Format: functional, cell-based.
The subject of another assay is CAKI-1. Description: Antiproliferative activity against human CAKI-1 cells assessed as inhibition of cell growth at 10 uM by SRB assay relative to control. It counts as functional.
Assay [2] relates to Malme-3M. Description: Antiproliferative activity against human Malme-3M cells assessed as cell growth inhibition at 10 uM by SRB assay. It counts as functional, cell-based.
The next assay has as its system NCI-H23. The experiment in a line: Antiproliferative activity against human NCI-H23 cells assessed as cell growth inhibition at 10 uM by SRB assay. It counts as functional.
Assay [3] relates to RPMI-8226. Description: Antiproliferative activity against human RPMI-8226 cells assessed as cell growth inhibition at 10 uM by SRB assay. It counts as functional, cell-based.
Another assay has as its system NCI-H226. Description: Antiproliferative activity against human NCI-H226 cells assessed as cell growth inhibition at 10 uM by SRB assay. Format: functional.
The next assay concerns M14. Description: Antiproliferative activity against human M14 cells assessed as cell growth inhibition at 10 uM by SRB assay. It counts as functional, cell-based.
For another assay, the system named is RXF 393. The experiment in a line: Antiproliferative activity against human RXF 393 cells assessed as inhibition of cell growth at 10 uM by SRB assay relative to control. It counts as functional.
For the next assay, the system named is SK-MEL-2. Description: Antiproliferative activity against human SK-MEL-2 cells assessed as cell growth inhibition at 10 uM by SRB assay relative to control. It counts as functional. To be noted: Homo sapiens, SK-MEL-2, dose 10 µM.
The next assay concerns EKVX. The experiment in a line: Antiproliferative activity against human EKVX cells assessed as cell growth inhibition at 10 uM by SRB assay. It counts as functional.
The next assay concerns K562. Description: Antiproliferative activity against human K562 cells assessed as cell growth inhibition at 10 uM by SRB assay. Format: functional, cell-based.
Another assay concerns ACHN. The experiment in a line: Antiproliferative activity against human ACHN cells assessed as inhibition of cell growth at 10 uM by SRB assay relative to control. It counts as functional. To be noted: pooled result: one value given for 2 cell lines, strains, targets or settings.
A further assay has as its system Renal cancer cell line. The experiment in a line: Antiproliferative activity against human renal cancer cells assessed as cell growth inhibition at 10 uM by SRB assay relative to control. Format: functional.
The subject of the next assay is T47D. The experiment in a line: Antiproliferative activity against estrogen receptor positive human T47D cells assessed as inhibition of cell growth at 10 uM by SRB assay relative to control. Format: functional.
The subject of a further assay is SR. The experiment in a line: Antiproliferative activity against human SR cells assessed as cell growth inhibition at 10 uM by SRB assay. Format: functional, cell-based.
In the next assay the test system is MOLT-4. The experiment in a line: Antiproliferative activity against human MOLT-4 cells assessed as cell growth inhibition at 10 uM by SRB assay. It counts as functional, cell-based.
Another assay concerns LOX IMVI. Description: Antiproliferative activity against human LOX IMVI cells assessed as cell growth inhibition at 10 uM by SRB assay. Format: functional, cell-based.
Another assay concerns SF-295. The experiment in a line: Antiproliferative activity against human SF-295 cells assessed as cell growth inhibition at 10 uM by SRB assay. Format: functional, cell-based.
The subject of a further assay is HCT-116. The experiment in a line: Antiproliferative activity against human HCT-116 cells assessed as cell growth inhibition at 10 uM by SRB assay relative to control. Format: functional.
Assay [4] can be described thus: Antiproliferative activity against human hematologic cancer cells assessed as cell growth inhibition at 10 uM by SRB assay relative to control. It counts as functional.
A further assay concerns HOP-92. The experiment in a line: Antiproliferative activity against human HOP-92 cells assessed as cell growth inhibition at 10 uM by SRB assay. Format: functional, cell-based.
The test system of a further assay is CCRF-CEM. Description: Antiproliferative activity against human CCRF-CEM cells assessed as cell growth inhibition at 10 uM by SRB assay. Format: functional, cell-based.
Another assay deals with Prostatic carcinoma cell. The experiment in a line: Antiproliferative activity against human prostatic carcinoma cells assessed as cell growth inhibition at 10 uM by SRB assay relative to control. Format: functional.
For a further assay, the system named is NCI-H522. Description: Antiproliferative activity against human NCI-H522 cells assessed as cell growth inhibition at 10 uM by SRB assay. Format: functional, cell-based.
Assay [5] is described as follows: Antiproliferative activity against human colon cancer cells assessed as cell growth inhibition at 10 uM by SRB assay relative to control. Particulars: Colon carcinoma cell. It counts as functional.
The test system of another assay is OVCAR-8. Description: Antiproliferative activity against human OVCAR-8 cells assessed as cell growth inhibition at 10 uM by SRB assay relative to control. Format: functional.
Another assay relates to OVCAR-4. The experiment in a line: Antiproliferative activity against human OVCAR-4 cells assessed as cell growth inhibition at 10 uM by SRB assay relative to control. It counts as functional.
The test system of another assay is UACC-62. Description: Antiproliferative activity against human UACC-62 cells assessed as cell growth inhibition at 10 uM by SRB assay relative to control. It counts as functional.
The test system of the next assay is BT-549. The experiment in a line: Antiproliferative activity against triple negative human BT-549 cells assessed as inhibition of cell growth at 10 uM by SRB assay relative to control. It counts as functional.
Another assay has as its system IGROV-1. The experiment in a line: Antiproliferative activity against human IGROV-1 cells assessed as cell growth inhibition at 10 uM by SRB assay relative to control. Format: functional.
The test system of assay [6] is Malme-3M. The experiment in a line: Antiproliferative activity against human Malme-3M cells assessed as cell growth inhibition at 10 uM by SRB assay relative to control. Format: functional.
The test system of a further assay is UO-31. Description: Antiproliferative activity against human UO-31 cells assessed as inhibition of cell growth at 10 uM by SRB assay relative to control. Format: functional.

Activity calls are given as the source filed them. No cut-off for these calls is given here.

Regarding `COc1cc2oc(-c3cccc(C(=O)Nc4ccc(C)cc4)c3)cc(=O)c2c(O)c1OC`, the inhibition entry in the assay with SNB-75 and in the assay with SF-539 was “Active” in each case. In addition, in the assay on RPMI-8226 [1], the inhibition at 10 µM was 82.6%.
Turning to `COc1cc2oc(-c3cccc(NC(=O)c4ccc(Cl)cc4)c3)cc(=O)c2c(OC)c1OC`, the inhibition entry in the assay on HL-60, with Hs-578T, with Malme-3M [2], with RPMI-8226 [3], in the assay on M14 and in the assay with K562 was “Active” each time. In addition, the inhibition entry in the assay on SR, in the assay with MOLT-4, in the assay on LOX IMVI, with SF-295, in the assay on HOP-92 and with CCRF-CEM was “Active” throughout. The inhibition entry in the assay with NCI-H522 is “Active”. Further, the inhibition at 10 µM in the assay on CAKI-1 is 51.1%; with NCI-H23, < 50%; in the assay with NCI-H226 it was < 50%; with RXF 393, 51.1%; in the assay with SK-MEL-2, ≤ 46%; in the assay with EKVX it was < 50%. Also, the inhibition at 10 µM in the assay with ACHN was 51.1%; in the assay on Renal cancer cell line it was > 50%; in the assay on T47D it was 62.2%; in the assay with HCT-116, 88%; in assay [4], > 50%; in the assay with Prostatic carcinoma cell it was > 50%. In addition, the inhibition at 10 µM in [5] was > 50%.
With `COc1cc2oc(-c3cccc(NC(=O)c4ccc([N+](=O)[O-])cc4)c3)cc(=O)c2c(OC)c1OC`, the inhibition result in the assay with HL-60, in the assay on Hs-578T, in the assay with RPMI-8226 [3], with K562, in the assay with SR and with MOLT-4 was “Active” in each case. Further, the inhibition entry in the assay with SF-295, with HOP-92, in the assay on CCRF-CEM, in the assay with NCI-H522 and with UO-31 was “Active” throughout. Further, the inhibition at 10 µM was 57.3% in the assay on OVCAR-8; < 50% in the assay with NCI-H23; 57.3% in the assay with OVCAR-4; < 50% with NCI-H226; 52.1% in the assay with UACC-62; ≤ 46% with SK-MEL-2. Also, the inhibition at 10 µM with BT-549 was 77%; in the assay with EKVX, < 50%; with IGROV-1, 57.3%; in the assay with Malme-3M [6], 70.2%.
